# Article PMC3985299, “Single Ascending Dose Safety and Pharmacokinetics of CDRI-97/78: First-in-Human Study of a Novel Antimalarial Drug” (Malaria Research and Treatment, 2014)
# Experiments:
# [1] = system: healthy human volunteers; assay: Single ascending dose study: haematological parameters; type: in vivo; settings: 400 mg
# Description: The study was approved by the Institute's Ethics Committee. The single ascending dose study and the pharmacokinetic study are registered with Central Trial Registry of India (CTRI/2012/07/002812; CTRI/2012/07/002832). Normal healthy male volunteers in the age group of 18–45 years were invited to join the trial. A detailed informed consent process of the volunteers was undertaken and screening of the volunteers was done after obtaining informed consent. They were recruited through contacts and hospital employees were excluded. The health status of the volunteers was determined by taking medical history, physical examination, routine haematology (haemoglobin, total lymphocyte count, differential count, and platelet count), clinical biochemistry (serum glutamic oxaloacetic transaminase (SGOT), serum glutamic pyruvic transaminase (SGPT), serum bilirubin, serum creatinine, blood urea, serum electrolytes, random blood sugar, total protein, and serum lipid profile), and urine and stool analysis (routine examination and microscopy). The volunteers were asked to report to the study site after 12 hours of fasting for the blood tests. Chest X-ray and 12-lead ECG were also taken. The participants were also screened for human immunodeficiency virus (HIV) and hepatitis B. The volunteers after giving informed consent were screened. The screening process was done latest within 1 month of admission for dosing. The volunteers who fulfilled the inclusion/exclusion criteria were admitted in the CPU the night before drug administration. Standardized dinner was served at 9 pm the night prior to dosing. On day 0, baseline blood sample for biochemical and haematological examination and stool and urine samples for routine and microscopy were taken. […] The subjects were attached to a cardiac monitor and vital HR, BP, ECG, oxygen saturation, and RR were recorded. Corrected QT interval using Fridericia's formula was calculated. Adverse events were assessed at specific time points (0.5, 1, 2, 4, 6, 8, 12, and 24 hrs after medication). […] The study was monitored by a Data Safety Monitoring Board.
# [2] = system: chloroquine sensitive P. berghei; set-up: method as in printed; settings: chloroquine sensitive P. berghei in mice; background, ref not given; cited from earlier work
# [3] = system: healthy human volunteers; assay: Single ascending dose study: biochemical parameters (liver function tests, serum electrolytes); type: in vivo; set-up: Total serum bilirubin / Serum SGOT / Serum SGPT: unit not given here
# Description: The study was approved by the Institute's Ethics Committee. The single ascending dose study and the pharmacokinetic study are registered with Central Trial Registry of India (CTRI/2012/07/002812; CTRI/2012/07/002832). Normal healthy male volunteers in the age group of 18–45 years were invited to join the trial. A detailed informed consent process of the volunteers was undertaken and screening of the volunteers was done after obtaining informed consent. They were recruited through contacts and hospital employees were excluded. The health status of the volunteers was determined by taking medical history, physical examination, routine haematology (haemoglobin, total lymphocyte count, differential count, and platelet count), clinical biochemistry (serum glutamic oxaloacetic transaminase (SGOT), serum glutamic pyruvic transaminase (SGPT), serum bilirubin, serum creatinine, blood urea, serum electrolytes, random blood sugar, total protein, and serum lipid profile), and urine and stool analysis (routine examination and microscopy). The volunteers were asked to report to the study site after 12 hours of fasting for the blood tests. Chest X-ray and 12-lead ECG were also taken. The participants were also screened for human immunodeficiency virus (HIV) and hepatitis B. The volunteers after giving informed consent were screened. The screening process was done latest within 1 month of admission for dosing. The volunteers who fulfilled the inclusion/exclusion criteria were admitted in the CPU the night before drug administration. Standardized dinner was served at 9 pm the night prior to dosing. On day 0, baseline blood sample for biochemical and haematological examination and stool and urine samples for routine and microscopy were taken. They received the study drug, according to the randomization sequence, under supervision. The empty packaging was returned to the container. The volunteers received drug as per randomization. Breakfast was given half an hour after drug administration. Subsequently, standardized lunch and dinner were served to the volunteers. The subjects were attached to a cardiac monitor and vital HR, BP, ECG, oxygen saturation, and RR were recorded. Corrected QT interval using Fridericia's formula was calculated. Adverse events were assessed at specific time points (0.5, 1, 2, 4, 6, 8, 12, and 24 hrs after medication). Unscheduled monitoring was undertaken whenever it felt necessary. The volunteers were discharged after 24 hrs and they had to return at 48 hrs and on the 7th day for follow-up. At the end of the 7th day, they were said to have completed the study. Routine haematological and biochemical investigations were performed at 0 hr, 24 hrs after drug administration, and on day 7. The study was monitored by a Data Safety Monitoring Board.
structure (smiles),measurement,setting,value
"C=C(c1ccc(OC(C)(C)COC(=O)CCC(=O)O)cc1)C1COC2(OO1)C1CC3CC(C1)CC2C3 (stereo not drawn) [CDRI 97/78, Mono[2methyl2[3(1spiro[tricycle[3.3.1.13,7]decane2,3′-[1,2,4]trioxan] 6′-ylethenyl)phenoxy]propyl] ester]",Hemoglobin,[1]; 7th day,14.35 ± 1.10 gm%
same,Hemoglobin,[1]; 24 hr,14.92 ± 0.94 gm%
same,Hemoglobin,[1]; baseline,14.25 ± 0.75 gm%
same,Antimalarial activity,[2],powerful antimalarial activity
same,Serum Alkaline phosphatase,"[3]; 80 mg (n = 6), 24 hour",102.5 ± 30.09
same,Serum SGOT,"[3]; 80 mg (n = 6), 24 hour",23.48 ± 2.88
same,Serum SGPT,"[3]; 80 mg (n = 6), 24 hour",26.2 ± 6.6
same,Total serum bilirubin,"[3]; 80 mg (n = 6), 24 hour",0.73 ± 0.24
same,Serum Alkaline phosphatase,"[3]; 80 mg (n = 6), Baseline",95.5 ± 26.65
same,Serum SGOT,"[3]; 80 mg (n = 6), Baseline",22.15 ± 6.3
same,Serum SGPT,"[3]; 80 mg (n = 6), Baseline",21.88 ± 10.0
same,Total serum bilirubin,"[3]; 80 mg (n = 6), Baseline",0.82 ± 0.24
same,Serum Alkaline phosphatase,"[3]; 80 mg (n = 6), Day 7",106.83 ± 37.12
same,Serum SGOT,"[3]; 80 mg (n = 6), Day 7",27.7 ± 6.1
same,Serum SGPT,"[3]; 80 mg (n = 6), Day 7",21.8 ± 3.7
same,Total serum bilirubin,"[3]; 80 mg (n = 6), Day 7",0.64 ± 0.23
same,Serum Alkaline phosphatase,"[3]; 160 mg (n = 6), 24 hour",212 ± 67
same,Serum SGOT,"[3]; 160 mg (n = 6), 24 hour",33.98 ± 9.69
same,Serum SGPT,"[3]; 160 mg (n = 6), 24 hour",39.43 ± 8.08
same,Total serum bilirubin,"[3]; 160 mg (n = 6), 24 hour",0.55 ± 0.07
same,Serum Alkaline phosphatase,"[3]; 160 mg (n = 6), Baseline",211.5 ± 68.65
same,Serum SGOT,"[3]; 160 mg (n = 6), Baseline",34.18 ± 7.89
same,Serum SGPT,"[3]; 160 mg (n = 6), Baseline",37.21 ± 4.16
same,Total serum bilirubin,"[3]; 160 mg (n = 6), Baseline",0.76 ± 0.39
same,Serum Alkaline phosphatase,"[3]; 160 mg (n = 6), Day 7",207.17 ± 61.03
same,Serum SGOT,"[3]; 160 mg (n = 6), Day 7",38.33 ± 8.91
same,Serum SGPT,"[3]; 160 mg (n = 6), Day 7",44.5 ± 11.64
same,Total serum bilirubin,"[3]; 160 mg (n = 6), Day 7",0.6 ± 0.06
same,Serum Alkaline phosphatase,"[3]; 320 mg (n = 6), 24 hour",222.5 ± 34.55
same,Serum SGOT,"[3]; 320 mg (n = 6), 24 hour",34.17 ± 7.76
same,Serum SGPT,"[3]; 320 mg (n = 6), 24 hour",37.33 ± 8.87
same,Total serum bilirubin,"[3]; 320 mg (n = 6), 24 hour",0.8 ± 0.4
same,Serum Alkaline phosphatase,"[3]; 320 mg (n = 6), Baseline",242 ± 45.24
same,Serum SGOT,"[3]; 320 mg (n = 6), Baseline",32.83 ± 5.15
same,Serum SGPT,"[3]; 320 mg (n = 6), Baseline",33.83 ± 9.09
same,Total serum bilirubin,"[3]; 320 mg (n = 6), Baseline",0.73 ± 0.52
same,Serum Alkaline phosphatase,"[3]; 320 mg (n = 6), Day 7",235.83 ± 32.49
same,Serum SGOT,"[3]; 320 mg (n = 6), Day 7",35 ± 8.53
same,Serum SGPT,"[3]; 320 mg (n = 6), Day 7",38.33 ± 13.84
same,Total serum bilirubin,"[3]; 320 mg (n = 6), Day 7",0.87 ± 0.59
same,Serum Alkaline phosphatase,"[3]; 400 mg (n = 6), 24 hour",251.67 ± 47.59
same,Serum SGOT,"[3]; 400 mg (n = 6), 24 hour",31.5 ± 4.5
same,Serum SGPT,"[3]; 400 mg (n = 6), 24 hour",35.17 ± 4.12
same,Total serum bilirubin,"[3]; 400 mg (n = 6), 24 hour",0.53 ± 0.05
same,Serum Alkaline phosphatase,"[3]; 400 mg (n = 6), Baseline",232.83 ± 42
same,Serum SGOT,"[3]; 400 mg (n = 6), Baseline",26.67 ± 6.62
same,Serum SGPT,"[3]; 400 mg (n = 6), Baseline",29 ± 5.44
same,Total serum bilirubin,"[3]; 400 mg (n = 6), Baseline",0.52 ± 0.04
same,Serum Alkaline phosphatase,"[3]; 400 mg (n = 6), Day 7",242.83 ± 34.82
same,Serum SGOT,"[3]; 400 mg (n = 6), Day 7",32.33 ± 8.87
same,Serum SGPT,"[3]; 400 mg (n = 6), Day 7",38 ± 12.95
same,Total serum bilirubin,"[3]; 400 mg (n = 6), Day 7",0.55 ± 0.08
same,Serum Alkaline phosphatase,"[3]; 500 mg (n = 6), 24 hour",313 ± 124.5
same,Serum SGOT,"[3]; 500 mg (n = 6), 24 hour",31.5 ± 6.02
same,Serum SGPT,"[3]; 500 mg (n = 6), 24 hour",34.83 ± 11.07
same,Total serum bilirubin,"[3]; 500 mg (n = 6), 24 hour",0.52 ± 0.04
same,Serum Alkaline phosphatase,"[3]; 500 mg (n = 6), Baseline",321.17 ± 151
same,Serum SGOT,"[3]; 500 mg (n = 6), Baseline",31.33 ± 8.76
same,Serum SGPT,"[3]; 500 mg (n = 6), Baseline",32.83 ± 11.5
same,Total serum bilirubin,"[3]; 500 mg (n = 6), Baseline",0.52 ± 0.04
same,Serum Alkaline phosphatase,"[3]; 500 mg (n = 6), Day 7",339.67 ± 184.25
same,Serum SGOT,"[3]; 500 mg (n = 6), Day 7",34 ± 6.00
same,Serum SGPT,"[3]; 500 mg (n = 6), Day 7",35.33 ± 10.56
same,Total serum bilirubin,"[3]; 500 mg (n = 6), Day 7",0.53 ± 0.05
same,Serum Alkaline phosphatase,"[3]; 600 mg (n = 6), 24 hour",275.83 ± 61.29
same,Serum SGOT,"[3]; 600 mg (n = 6), 24 hour",30.33 ± 6.74
same,Serum SGPT,"[3]; 600 mg (n = 6), 24 hour",30.5 ± 8.46
same,Total serum bilirubin,"[3]; 600 mg (n = 6), 24 hour",0.8 ± 0.59
same,Serum Alkaline phosphatase,"[3]; 600 mg (n = 6), Baseline",272.5 ± 66.71
same,Serum SGOT,"[3]; 600 mg (n = 6), Baseline",31.17 ± 6.3
same,Serum SGPT,"[3]; 600 mg (n = 6), Baseline",30 ± 7.16
same,Total serum bilirubin,"[3]; 600 mg (n = 6), Baseline",0.8 ± 0.54
same,Serum Alkaline phosphatase,"[3]; 600 mg (n = 6), Day 7",274 ± 75.17
same,Serum SGOT,"[3]; 600 mg (n = 6), Day 7",31.33 ± 5.78
same,Serum SGPT,"[3]; 600 mg (n = 6), Day 7",33.17 ± 10.53
same,Total serum bilirubin,"[3]; 600 mg (n = 6), Day 7",0.82 ± 0.59
same,Serum Alkaline phosphatase,"[3]; 700 mg (n = 2), 24 hour",254 ± 56.57
same,Serum SGOT,"[3]; 700 mg (n = 2), 24 hour",40 ± 4.24
same,Serum SGPT,"[3]; 700 mg (n = 2), 24 hour",46.5 ± 4.95
same,Total serum bilirubin,"[3]; 700 mg (n = 2), 24 hour",0.6 ± 0.14
same,Serum Alkaline phosphatase,"[3]; 700 mg (n = 2), Baseline",261.5 ± 50.2
same,Serum SGOT,"[3]; 700 mg (n = 2), Baseline",35.5 ± 0.71
same,Serum SGPT,"[3]; 700 mg (n = 2), Baseline",46 ± 5.66
same,Total serum bilirubin,"[3]; 700 mg (n = 2), Baseline",0.6 ± 0.14
same,Serum Alkaline phosphatase,"[3]; 700 mg (n = 2), Day 7",260.5 ± 44.55
same,Serum SGOT,"[3]; 700 mg (n = 2), Day 7",34.5 ± 0.71
same,Serum SGPT,"[3]; 700 mg (n = 2), Day 7",40 ± 11.31
same,Total serum bilirubin,"[3]; 700 mg (n = 2), Day 7",0.55 ± 0.07
same,Serum sodium and serum potassium values vs normal physiological ranges,"[3]; all time points, all groups",None of the volunteers had values outside the normal physiological ranges
same,"Serum bilirubin, SGOT and SGPT, intergroup comparisons","[3]; any time point of measurement, 80-700 mg and placebo",no significant difference
